# Several values for one entry are separate records, joined by “and”; a condition that tells them apart may be missing. Equal values may be shown once. Inconclusive results and toxic doses are left out.
# System: BDF1 mice, P388 leukemia ip, median survival T/C
# Assay: NCI In Vivo Anticancer Drug Screen. Data for tumor model P388 Leukemia (intraperitoneal) in B6D2F1 (BDF1) mice
# Details: endpoint: median survival time, higher = longer survival
# How it was run: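 Vehicle-dosed animals serve as the reference; survival of compound-dosed, tumour-implanted mice is divided by it.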
structure (smiles),measurement,setting,value
COc1cccc2c1C(=O)c1c(O)c3c(c(O)c1C2=O)C[C@@](O)(C(=O)CO)C[C@@H]3OC1CC(N)C(O)C(C)O1 (some centres undefined),T/C,"dose: 0.25 mg/kg/injection, schedule: Q03HX024 (ip), vehicle: saline",230 % of control
same,T/C,"dose: 0.37 mg/kg/injection, schedule: Q03HX024 (ip), vehicle: saline",285 % of control
same,T/C,"dose: 0.39 mg/kg/injection, schedule: Q01DX009 (ip), vehicle: water",152 % of control
same,T/C,"dose: 0.5 mg/kg/injection, schedule: Q01DX009 (ip), vehicle: saline",250 % of control
same,T/C,"dose: 0.5 mg/kg/injection, schedule: Q03HX024 (ip), vehicle: saline",250 % of control
same,T/C,"dose: 0.75 mg/kg/injection, schedule: Q03HX024 (ip), vehicle: saline",240 % of control
same,T/C,"dose: 0.8 mg/kg/injection, schedule: Q01DX004 (ip), vehicle: saline",270 % of control
same,T/C,"dose: 0.9 mg/kg/injection, schedule: Q01DX009 (ip), vehicle: clinical formulation",263 % of control
same,T/C,"dose: 1.0 mg/kg/injection, schedule: Q01DX001 (ip), vehicle: saline",153 % of control
same,T/C,"dose: 1.0 mg/kg/injection, schedule: Q01DX004 (ip), vehicle: saline",536 % of control
same,T/C,"dose: 1.0 mg/kg/injection, schedule: Q01DX009 (ip), vehicle: saline",285 % of control
same,T/C,"dose: 1.0 mg/kg/injection, schedule: Q03HX008 (ip), vehicle: water",250 % of control
same,T/C,"dose: 1.0 mg/kg/injection, schedule: Q03HX016 (ip), vehicle: saline",290 % of control
same,T/C,"dose: 1.0 mg/kg/injection, schedule: Q04DX003 (ip), vehicle: saline",106 % of control
same,T/C,"dose: 1.0 mg/kg/injection, schedule: Q04DX009 (ip), vehicle: water",117 % of control
same,T/C,"dose: 1.2 mg/kg/injection, schedule: Q01DX009 (ip), vehicle: saline",304 % of control
same,T/C,"dose: 1.2 mg/kg/injection, schedule: Q03HX008 (ip), vehicle: saline",539 % of control
same,T/C,"dose: 1.3 mg/kg/injection, schedule: Q01DX009 (ip), vehicle: clinical formulation",473 % of control
same,T/C,"dose: 1.5 mg/kg/injection, schedule: Q01DX009 (ip), vehicle: saline",361 % of control
same,T/C,"dose: 1.5 mg/kg/injection, schedule: Q03HX024 (sc), vehicle: saline",95 % of control
same,T/C,"dose: 1.56 mg/kg/injection, schedule: Q01DX009 (ip), vehicle: water",224 % of control
same,T/C,"dose: 1.6 mg/kg/injection, schedule: Q01DX004 (ip), vehicle: saline",423 % of control
same,T/C,"dose: 1.73 mg/kg/injection, schedule: Q04DX003 (ip), vehicle: water",256 % of control
same,T/C,"dose: 1.8 mg/kg/injection, schedule: Q01DX009 (ip), vehicle: saline",295 % of control and 306 % of control
same,T/C,"dose: 1.8 mg/kg/injection, schedule: Q03HX008 (ip), vehicle: saline",539 % of control
same,T/C,"dose: 1.8 mg/kg/injection, schedule: Q04DX003 (ip), vehicle: saline",122 % of control
same,T/C,"dose: 1.8 mg/kg/injection, schedule: Q## X003 (ip), vehicle: saline",122 % of control
same,T/C,"dose: 2.0 mg/kg/injection, schedule: Q01DX009 (ip), vehicle: clinical formulation",247 % of control
same,T/C,"dose: 2.0 mg/kg/injection, schedule: Q01DX009 (ip), vehicle: saline",238 % of control and 250 % of control
same,T/C,"dose: 2.0 mg/kg/injection, schedule: Q03HX008 (ip), vehicle: water",254 % of control
same,T/C,"dose: 2.0 mg/kg/injection, schedule: Q04DX003 (ip), vehicle: saline",122 % of control
same,T/C,"dose: 2.0 mg/kg/injection, schedule: Q06HX004 (ip), vehicle: water",300 % of control
same,T/C,"dose: 2.16 mg/kg/injection, schedule: Q04DX003 (ip), vehicle: water",247 % of control
same,T/C,"dose: 2.5 mg/kg/injection, schedule: Q01DX009 (ip), vehicle: saline",119 % of control
same,T/C,"dose: 2.5 mg/kg/injection, schedule: Q01DX009 (sc), vehicle: saline",115 % of control
same,T/C,"dose: 2.5 mg/kg/injection, schedule: Q04DX003 (ip), vehicle: water",237 % of control
same,T/C,"dose: 2.7 mg/kg/injection, schedule: Q01DX009 (ip), vehicle: saline",124 % of control
same,T/C,"dose: 2.7 mg/kg/injection, schedule: Q03HX008 (ip), vehicle: saline",92 % of control
same,T/C,"dose: 2.7 mg/kg/injection, schedule: Q04DX003 (ip), vehicle: saline",122 % of control
same,T/C,"dose: 2.7 mg/kg/injection, schedule: Q## X003 (ip), vehicle: saline",122 % of control
same,T/C,"dose: 2.88 mg/kg/injection, schedule: Q04DX003 (ip), vehicle: water",241 % of control
same,T/C,"dose: 3.0 mg/kg/injection, schedule: Q01DX009 (ip), vehicle: clinical formulation",473 % of control
same,T/C,"dose: 3.0 mg/kg/injection, schedule: Q01DX009 (ip), vehicle: saline",104 % of control
same,T/C,"dose: 3.0 mg/kg/injection, schedule: Q01DX009 (sc), vehicle: saline",100 % of control
same,T/C,"dose: 3.0 mg/kg/injection, schedule: Q03HX008 (ip), vehicle: water",243 % of control
same,T/C,"dose: 3.0 mg/kg/injection, schedule: Q04DX004 (ip), vehicle: saline",112 % of control
same,T/C,"dose: 3.5 mg/kg/injection, schedule: Q01DX009 (ip), vehicle: saline",90 % of control
same,T/C,"dose: 3.5 mg/kg/injection, schedule: Q01DX009 (sc), vehicle: saline",100 % of control
same,T/C,"dose: 3.6 mg/kg/injection, schedule: Q01DX004 (ip), vehicle: saline with Tween-80",123 % of control
same,T/C,"dose: 3.6 mg/kg/injection, schedule: Q04DX003 (ip), vehicle: saline + alcohol",232 % of control
same,T/C,"dose: 3.6 mg/kg/injection, schedule: Q04DX003 (ip), vehicle: water",240 % of control and 259 % of control
same,T/C,"dose: 4.0 mg/kg/injection, schedule: Q03HX008 (ip), vehicle: saline",541 % of control
same,T/C,"dose: 4.0 mg/kg/injection, schedule: Q04DX003 (sc), vehicle: saline",150 % of control
same,T/C,"dose: 4.0 mg/kg/injection, schedule: Q06HX004 (ip), vehicle: water",545 % of control
same,T/C,"dose: 4.4 mg/kg/injection, schedule: Q01DX001 (ip), vehicle: saline",150 % of control
same,T/C,"dose: 4.5 mg/kg/injection, schedule: Q01DX009 (ip), vehicle: clinical formulation",100 % of control
same,T/C,"dose: 4.5 mg/kg/injection, schedule: Q04DX003 (ip), vehicle: saline",539 % of control and 571 % of control
same,T/C,"dose: 4.8 mg/kg/injection, schedule: Q04DX003 (ip), vehicle: water",224 % of control and 247 % of control
same,T/C,"dose: 5.0 mg/kg/injection, schedule: Q01DX001 (ip), vehicle: saline",252 % of control
same,T/C,"dose: 5.0 mg/kg/injection, schedule: Q03HX008 (ip), vehicle: water",89 % of control
same,T/C,"dose: 5.0 mg/kg/injection, schedule: Q07DX006 (ip), vehicle: saline",245 % of control
same,T/C,"dose: 5.5 mg/kg/injection, schedule: Q04DX003 (ip), vehicle: saline",571 % of control
same,T/C,"dose: 5.5 mg/kg/injection, schedule: Q04DX003 (sc), vehicle: saline",150 % of control
same,T/C,"dose: 6.0 mg/kg/injection, schedule: Q01DX001 (ip), vehicle: saline",516 % of control
same,T/C,"dose: 6.0 mg/kg/injection, schedule: Q04DX003 (ip), vehicle: saline + alcohol",270 % of control
same,T/C,"dose: 6.0 mg/kg/injection, schedule: Q04DX003 (ip), vehicle: saline",225 % of control and 153 % of control
same,T/C,"dose: 6.0 mg/kg/injection, schedule: Q04DX003 (ip), vehicle: water",250 % of control and 106 % of control and 123 % of control
same,T/C,"dose: 6.0 mg/kg/injection, schedule: Q## X003 (ip), vehicle: saline",153 % of control
same,T/C,"dose: 6.6 mg/kg/injection, schedule: Q01DX001 (iv), vehicle: saline",109 % of control
same,T/C,"dose: 6.67 mg/kg/injection, schedule: Q04DX003 (ip), vehicle: saline",271 % of control
same,T/C,"dose: 7.5 mg/kg/injection, schedule: Q01DX001 (ip), vehicle: saline",295 % of control
same,T/C,"dose: 7.5 mg/kg/injection, schedule: Q01DX001 (sc), vehicle: saline",150 % of control
same,T/C,"dose: 7.5 mg/kg/injection, schedule: Q07DX006 (ip), vehicle: saline",409 % of control
same,T/C,"dose: 8.0 mg/kg/injection, schedule: Q04DX009 (ip), vehicle: water",150 % of control
same,T/C,"dose: 8.4 mg/kg/injection, schedule: Q03HX008 (ip), vehicle: water",83 % of control
same,T/C,"dose: 10.0 mg/kg/injection, schedule: Q01DX001 (ip), vehicle: water",268 % of control
same,T/C,"dose: 10.0 mg/kg/injection, schedule: Q01DX001 (iv), vehicle: saline",117 % of control
same,T/C,"dose: 10.0 mg/kg/injection, schedule: Q07DX006 (ip), vehicle: saline",313 % of control
same,T/C,"dose: 12.0 mg/kg/injection, schedule: Q01DX001 (ip), vehicle: saline",486 % of control and 516 % of control (2×)
same,T/C,"dose: 15.0 mg/kg/injection, schedule: Q01DX001 (iv), vehicle: saline",235 % of control and 312 % of control
same,T/C,"dose: 16.0 mg/kg/injection, schedule: Q04DX009 (ip), vehicle: water",108 % of control
same,T/C,"dose: 16.7 mg/kg/injection, schedule: Q01DX001 (ip), vehicle: water",112 % of control
same,T/C,"dose: 20.0 mg/kg/injection, schedule: Q01DX001 (ip), vehicle: saline",104 % of control
same,T/C,"dose: 20.0 mg/kg/injection, schedule: Q01DX001 (ip), vehicle: water",79 % of control

# Source: PubChem BioAssay AID328 (DTP/NCI, 2004)
